Test results: patent publication US7018813B2 (priority 2000, dated 2006)
Where two headings read alike, the source gives them in different places.

Columns and labels:
[1] = cited from earlier work
[2] = at 25° C.; cited from earlier work
[3] = tested on: B. pertussis strain ATCC 9797 or CS87; assay type: cell-based, Bordetella pertussis

BaSO4
solubility in water ([1]; at 25° C.): 10.7 µM | solubility in water ([1]; at 100° C.): 17.7 µM | Ksp [2]: 1.05 × 10^−10

O=S(=O)([O-])[O-].[Pb+2] [PbSO4]
Ksp [2]: 1.82 × 10^−8

O=S(=O)([O-])[O-].[Sr+2] [SrSO4]
Ksp [2]: 3.42 × 10^−7

Barium chloride [BaCl2]
amount of PT [3]: 0.525 μg/mL/OD650

O=S(=O)([O-])[O-].[Ag+].[Ag+] [AgSO4]
Ksp [2]: 1.19 × 10^−5
